Assay: osmotic coefficient (dimensionless); mn = molality of the nth substance listed, in mol/kg
Details: 298.15 K, Liquid, isopiestic method

CCn1cc[n+](C)c1.[Br-] [1-ethyl-3-methylimidazolium bromide] + O
Details | osmotic coefficient
m1 = 0.5514 | 0.811
m1 = 0.6588 | 0.801
m1 = 0.6883 | 0.799
m1 = 0.7764 | 0.795
m1 = 0.9367 | 0.787
m1 = 1.04 | 0.786
m1 = 1.943 | 0.763
m1 = 2.308 | 0.757
m1 = 2.542 | 0.759
m1 = 3.189 | 0.763
m1 = 4.359 | 0.786
m1 = 5.41 | 0.821
m1 = 7.17 | 0.883

O=P([O-])([O-])O.[K+].[K+] [dipotassium hydrogen phosphate] + O
Details | osmotic coefficient
m1 = 0.6496 | 0.711
m1 = 0.7592 | 0.704
m1 = 1.112 | 0.69
m1 = 1.251 | 0.69
m1 = 1.604 | 0.689
m1 = 1.712 | 0.694
m1 = 1.965 | 0.696
m1 = 2.163 | 0.709

O=P([O-])(O)O.[K+] [monopotassium phosphate] + O
Details | osmotic coefficient
m1 = 0.6269 | 0.8
m1 = 0.9843 | 0.744
m1 = 1.113 | 0.731
m1 = 1.228 | 0.717
m1 = 1.27 | 0.715
m1 = 1.508 | 0.696
m1 = 1.707 | 0.68

O=P([O-])([O-])[O-].[K+].[K+].[K+] [tripotassium phosphate] + O
Details | osmotic coefficient
m1 = 0.4308 | 0.694
m1 = 0.5142 | 0.698
m1 = 0.6347 | 0.705
m1 = 0.7575 | 0.708
m1 = 0.8132 | 0.716
m1 = 1.002 | 0.744
m1 = 1.012 | 0.745
m1 = 1.241 | 0.778
m1 = 1.695 | 0.866
m1 = 1.83 | 0.893

From the NIST ThermoML archive (doi:10.1021/je100720x)
